Bridge positions count the residues as written; N and C are the ends. Square brackets hold non-standard residues; d marks the D form. Peptide text beside a SMILES is read from it. hArg = N=C(N)NCCCC[C@H](N)C(=O)O; Nle = CCCC[C@H](N)C(=O)O; Ac5c = NC1(C(=O)O)CCCC1; Dap = NC[C@H](N)C(=O)O; Aib = CC(C)(N)C(=O)O
How the values were obtained:
Saos-2 PTH1R = molecular target: T1, Saos-2 PTH1R (Homo sapiens, UniProt Q03431); assay: cAMP-efficacy assay in Saos-2 cells; format: cell-based; settings: for Emax ± SEM: relative effect to the control (SEQ ID NO: 32)
T1 construct: endogenous in cells; host or cells: Saos-2
T1 sequence (Q03431 27-593): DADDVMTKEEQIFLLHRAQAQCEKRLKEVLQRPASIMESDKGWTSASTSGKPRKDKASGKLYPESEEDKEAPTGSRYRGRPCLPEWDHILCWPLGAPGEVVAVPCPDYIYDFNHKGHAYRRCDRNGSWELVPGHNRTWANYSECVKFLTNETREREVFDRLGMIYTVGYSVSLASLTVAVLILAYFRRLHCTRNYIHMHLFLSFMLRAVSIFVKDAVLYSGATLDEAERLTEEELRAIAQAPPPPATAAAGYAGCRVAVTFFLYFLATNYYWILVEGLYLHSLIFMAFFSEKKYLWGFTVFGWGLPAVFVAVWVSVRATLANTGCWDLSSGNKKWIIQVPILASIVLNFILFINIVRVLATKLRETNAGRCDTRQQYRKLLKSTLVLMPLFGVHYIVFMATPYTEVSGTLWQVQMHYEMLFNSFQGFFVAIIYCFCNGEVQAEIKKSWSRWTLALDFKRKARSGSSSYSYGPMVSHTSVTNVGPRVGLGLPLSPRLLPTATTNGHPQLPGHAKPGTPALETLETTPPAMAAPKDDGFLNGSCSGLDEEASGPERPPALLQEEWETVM
How it was run: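 cAMP accumulation was assayed by FlashPlate after 15 min peptide stimulation at 37 °C of Saos-2 cells in Tyrode's buffer containing 100 μM IBMX and 0.1% BSA, with the reaction stopped by ice-cold HCl. Variable-slope logistic fitting gave EC50/pEC50, Hill coefficient and Emax, with single or triplicate points.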

CYP2D6 = CYP2D6 (Homo sapiens, UniProt P10635); assay: CYP2D6 inhibition in pooled human liver microsomes; format: in vitro ADME; parameters: Pooled human liver microsomes (HLM, final concentration 0.05 mg protein/mL); tissue BD Biosciences 452161; host or cells: pooled human liver microsomes; settings: 10 μM compound, dextrorphan formation rate
Experimental: Stock solutions of the test compounds (1 mM) were prepared in 50% isopropanol or 20% DMSO. Pooled human liver microsomes (HLM, final concentration 0.05 mg protein/mL) were mixed with phosphate buffer (0.1 M potassium phosphate, pH 7.4), CYP2D6 substrate (dextrometrorphan, 5 μM final concentration) and test compound (10 μM), quinidine (0.5 μM) or vehicle (0.2% DMSO or 0.5% isopropanol). The mixture was preincubated for 5 min at 37° C. prior to initiation of the reaction addition of a NADPH regenerating mixture (Final concentration: 1.25 mM NADP^+, 3.3 mM Glucose-6-phosphate, 3.3 mM MgCL2 and 0.4 U/mL glucose-6-phosphat dehydrogenase). After 5 minutes the reaction was stopped by addition of 0.25 volume stop reagent (94% acetonitrile, 6% acetic acid). Each experiment was performed in duplicate or triplicate.
The quantification of CYP2D6 product (dextrorphan) was performed by LC/MS/MS. After centrifugation for 5 min at 10.000 g, 40 μL of the supernatant was injected onto a C8 RP-HPLC column (XterraMS, C8, […], 50×2.1 mm). Dextrorphan was eluted by a linear gradient from 0 to 90% acetonitrile in 0.1% formic acid over 4 min using a flow rate of 0.15 ml/min. The concentration of dextrorphan in the reaction mixture was estimated from the peak area of the MS/MS transition (m/z 258.1>199) using an external calibration curve (Table 8).
The CYP2D6 activity in HLM was calculated as the metabolite formation rate: […]
Where, v is the formation rate, [metabolite] is the detected concentration of dextrorphan (pmol/mL) at the time (t, min) and [protein] is the protein concentration (mg/mL) in the reaction mixture. The influence of the test compounds on the CYP2D6 activity was calculated as % of the activity measured when incubated with the vehicle. The effect of CYP2D6 inhibitor (quinidine) was included as inhibition control within each batch analysis. A reduction in CYP2D6 activity to less than 70% of the vehicle control was considered significant.

[1] = cAMP, 100 μM IBMX, 37° C. 15 min, suffix of label = salt tested

CYP2D6, sequence (P10635 whole entry): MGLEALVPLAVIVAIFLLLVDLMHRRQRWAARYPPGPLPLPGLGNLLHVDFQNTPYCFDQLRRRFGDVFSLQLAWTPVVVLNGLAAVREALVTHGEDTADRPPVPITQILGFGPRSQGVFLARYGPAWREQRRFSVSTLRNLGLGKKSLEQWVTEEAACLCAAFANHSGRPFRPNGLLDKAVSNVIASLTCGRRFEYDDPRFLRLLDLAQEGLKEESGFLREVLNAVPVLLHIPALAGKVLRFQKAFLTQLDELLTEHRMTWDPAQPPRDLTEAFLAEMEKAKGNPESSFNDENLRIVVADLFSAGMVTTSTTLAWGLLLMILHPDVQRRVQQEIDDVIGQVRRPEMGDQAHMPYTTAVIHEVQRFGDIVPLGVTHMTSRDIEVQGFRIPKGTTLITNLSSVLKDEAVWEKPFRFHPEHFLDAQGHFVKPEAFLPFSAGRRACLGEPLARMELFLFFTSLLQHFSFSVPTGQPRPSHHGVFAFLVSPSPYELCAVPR

Row | Compound | pEC50 ± SEM (Saos-2 PTH1R; [1]) | CYP2D6 activity (% of vehicle) (CYP2D6) | potency compared to linear / non-stabilized counterparts, in words (Saos-2 PTH1R; cAMP) | EC50 (Saos-2 PTH1R; [1]) [nM] | potency compared to linear / non-stabilized counterparts, in words (Saos-2 PTH1R; cAMP, listed as 4) | potency compared to linear / non-stabilized counterparts, in words (Saos-2 PTH1R; cAMP, listed as SEQ ID NO:4) | Emax ± SEM (Saos-2 PTH1R)
1 | CC[C@H](C)[C@H](NC(=O)[C@H](CCC(=O)O)NC(=O)C(C)(C)NC(=O)[C@@H](NC(=O)C1(N)CCCC1)C(C)C)C(=O)N[C@@H](CCC(N)=O)C(=O)N[C@@H](CC(C)C)C(=O)N[C@@H](CCSC)C(=O)N[C@@H](Cc1c[nH]cn1)C(=O)N[C@@H](CC(N)=O)C(=O)N[C@@H](CC(C)C)C(=O)NCC(=O)N[C@@H](CCCCN)C(=O)N[C@@H](Cc1c[nH]cn1)C(=O)N[C@@H](CC(C)C)C(=O)N[C@@H](CC(N)=O)C(=O)N[C@@H](CC(=O)O)C(N)=O [SEQ ID NO: 1] (H-[Ac5c]V[Aib]EIQLMHNLGKHLND-NH2) | inactive | 57 % of vehicle |  |  |  |  | 
2 | CC[C@H](C)[C@H](NC(=O)[C@H](CCC(=O)O)NC(=O)C(C)(C)NC(=O)[C@@H](NC(=O)C1(N)CCCC1)C(C)C)C(=O)N[C@@H](CCC(N)=O)C(=O)N[C@@H](CC(C)C)C(=O)N[C@@H](CCSC)C(=O)N[C@@H](Cc1c[nH]cn1)C(=O)N[C@@H](CCC(N)=O)C(=O)N[C@@H](CCCCNC(=N)N)C(=O)N[C@@H](C)C(=O)N[C@H]1CCCCNC(=O)C[C@@H](C(=O)O)NC(=O)[C@H](CC(N)=O)NC(=O)[C@H](CC(C)C)NC(=O)[C@H](Cc2c[nH]c3ccccc23)NC1=O [SEQ ID NO: 4, H-Ac5c-Val-Aib-Glu-Ile-Gln-Leu-Met-His-Gln-Har-Ala-Lys( )-Trp-Leu-Asn-Asp( )-OH] (H-[Ac5c]V[Aib]EIQLMHQ[hArg]AKWLND-OH; lactam 13-17) |  | 89 % of vehicle | clearly higher potency | 38 | increased potencies | higher potency | 1.11 ± 0.03
3 | CC[C@H](C)[C@H](NC(=O)[C@H](CCC(=O)O)NC(=O)C(C)(C)NC(=O)[C@@H](NC(=O)C1(N)CCCC1)C(C)C)C(=O)N[C@@H](CCC(N)=O)C(=O)N[C@@H](CC(C)C)C(=O)N[C@@H](CCSC)C(=O)N[C@@H](Cc1c[nH]cn1)C(=O)N[C@@H](CCC(N)=O)C(=O)N[C@@H](CCCCNC(=N)N)C(=O)N[C@@H](C)C(=O)N[C@H]1CSSC[C@@H](C(N)=O)NC(=O)[C@H](CC(N)=O)NC(=O)[C@H](CC(C)C)NC(=O)[C@H](Cc2c[nH]c3ccccc23)NC1=O [SEQ ID NO: 7, H-Ac5c-Val-Aib-Glu-Ile-Gln-Leu-Met-His-Gln-Har-Ala-Cys( )-Trp-Leu-Asn-Cys( )-NH2] (H-[Ac5c]V[Aib]EIQLMHQ[hArg]ACWLNC-NH2; disulfide 13-17) |  | 85 % of vehicle |  | 50.1 |  |  | 1.2
4 | CC[C@H](C)[C@H](NC(=O)[C@H](CCC(=O)O)NC(=O)C(C)(C)NC(=O)[C@@H](NC(=O)C1(N)CCCC1)C(C)C)C(=O)N[C@@H](CCC(N)=O)C(=O)N[C@@H](CC(C)C)C(=O)N[C@@H](CCSC)C(=O)N[C@@H](Cc1c[nH]cn1)C(=O)N[C@@H](CCC(N)=O)C(=O)N[C@@H](CCCCNC(=N)N)C(=O)N[C@@H](C)C(=O)N[C@H]1CCC(=O)NCCCC[C@@H](C(N)=O)NC(=O)[C@H](CC(N)=O)NC(=O)[C@H](CC(C)C)NC(=O)[C@H](Cc2c[nH]c3ccccc23)NC1=O [SEQ ID NO: 8, H-Ac5c-Val-Aib-Glu-Ile-Gln-Leu-Met-His-Gln-Har-Ala-Glu( )-Trp-Leu-Asn-Lys( )-NH2] (H-[Ac5c]V[Aib]EIQLMHQ[hArg]AEWLNK-NH2; lactam 13-17) |  | 99 % of vehicle |  | 11.5 |  |  | 1.07 ± 0.02
5 | CC[C@H](C)[C@H](NC(=O)[C@H](CCC(=O)O)NC(=O)C(C)(C)NC(=O)[C@@H](NC(=O)C1(N)CCCC1)C(C)C)C(=O)N[C@@H](CCC(N)=O)C(=O)N[C@@H](CC(C)C)C(=O)N[C@@H](CCSC)C(=O)N[C@@H](Cc1c[nH]cn1)C(=O)N[C@@H](CCC(N)=O)C(=O)N[C@@H](CCCCNC(=N)N)C(=O)N[C@@H](C)C(=O)N[C@H]1CCCCNC(=O)CC[C@@H](C(N)=O)NC(=O)[C@H](CC(N)=O)NC(=O)[C@H](CC(C)C)NC(=O)[C@H](Cc2c[nH]c3ccccc23)NC1=O [SEQ ID NO: 9, H-Ac5c-Val-Aib-Glu-Ile-Gln-Leu-Met-His-Gln-Har-Ala-Lys( )-Trp-Leu-Asn-Glu( )-NH2] (H-[Ac5c]V[Aib]EIQLMHQ[hArg]AKWLNE-NH2; lactam 13-17) |  | 85 % of vehicle |  | 14.1 |  |  | 1.03 ± 0.03
6 | CC[C@H](C)[C@H](NC(=O)[C@H](CCC(=O)O)NC(=O)C(C)(C)NC(=O)[C@@H](NC(=O)C1(N)CCCC1)C(C)C)C(=O)N[C@@H](CCC(N)=O)C(=O)N[C@@H](CC(C)C)C(=O)N[C@@H](CC(C)C)C(=O)N[C@@H](Cc1c[nH]cn1)C(=O)N[C@@H](CCC(N)=O)C(=O)N[C@@H](CCCCNC(=N)N)C(=O)N[C@@H](C)C(=O)N[C@H]1CNC(=O)C[C@@H](C(N)=O)NC(=O)[C@H](CC(N)=O)NC(=O)[C@H](CC(C)C)NC(=O)[C@H](Cc2c[nH]c3ccccc23)NC1=O [SEQ ID NO: 17, H-Ac5c-Val-Aib-Glu-Ile-Gln-Leu-Leu-His-Gln-Har-Ala-Dpr( )-Trp-Leu-Asn-Asp( )-NH2] (H-[Ac5c]V[Aib]EIQLLHQ[hArg]A[Dap]WLND-NH2; lactam 13-17) |  | 101 % of vehicle |  | 776 |  |  | 1.25 ± 0.05
7 | CC[C@H](C)[C@H](NC(=O)[C@H](CCC(=O)O)NC(=O)C(C)(C)NC(=O)[C@@H](NC(=O)C1(N)CCCC1)C(C)C)C(=O)N[C@@H](CCC(=O)O)C(=O)N[C@@H](CC(C)C)C(=O)N[C@@H](CCSC)C(=O)N[C@@H](Cc1c[nH]cn1)C(=O)N[C@@H](CCC(N)=O)C(=O)N[C@@H](CCCCNC(=N)N)C(=O)N[C@@H](C)C(=O)N[C@H]1CCCCNC(=O)C[C@@H](C(N)=O)NC(=O)[C@H](CC(N)=O)NC(=O)[C@H](CC(C)C)NC(=O)[C@H](Cc2c[nH]c3ccccc23)NC1=O [SEQ ID NO: 18, H-Ac5c-Val-Aib-Glu-IIe-Glu-Leu-Met-His-Gln-Har-Ala-Lys( )-Trp-Leu-Asn-Asp( )-NH2] (H-[Ac5c]V[Aib]EIELMHQ[hArg]AKWLND-NH2; lactam 13-17) |  | 89 % of vehicle |  | 51.3 |  |  | 1.24 ± 0.29
8 | CCCC[C@H](NC(=O)[C@H](CC(C)C)NC(=O)[C@H](CCC(N)=O)NC(=O)[C@@H](NC(=O)[C@H](CCC(=O)O)NC(=O)C(C)(C)NC(=O)[C@@H](NC(=O)C1(N)CCCC1)C(C)C)[C@@H](C)CC)C(=O)N[C@@H](Cc1c[nH]cn1)C(=O)N[C@@H](CCC(N)=O)C(=O)N[C@@H](CCCCNC(=N)N)C(=O)N[C@@H](C)C(=O)N[C@H]1CCCCNC(=O)C[C@@H](C(N)=O)NC(=O)[C@H](CC(N)=O)NC(=O)[C@H](CC(C)C)NC(=O)[C@H](Cc2c[nH]c3ccccc23)NC1=O [SEQ ID NO: 20, H-Ac5c-Val-Aib-Glu-Ile-Gln-Leu-Nle-His-Gln-Har-Ala-Lys( )-Trp-Leu-Asn-Asp( )-NH2] (H-[Ac5c]V[Aib]EIQL[Nle]HQ[hArg]AKWLND-NH2; lactam 13-17) |  | 99 % of vehicle |  | 7.94 |  |  | 0.97 ± 0.04

From US20100048462A1, “TRUNCATED PTH PEPTIDES WITH A CYCLIC CONFORMATION” (Zealand Pharma A/S, priority 2006, published 2010)
